How the values were obtained:
[1] = tested on: Gardner lymphosarcoma (GLS); experiment: Gardner lymphosarcoma (GLS) transplanted in mice, tumor inhibition or prolongation of survival; format: in vivo
Procedure: (§1) The compounds of this invention and those preparable by the process disclosed herein are active against transplanted tumors in mice in vivo.
(§2) The following table--Table 1--gives the results of experiments in which mice bearing transplanted Gardner lymphosarcoma (GLS), C3 H mammary tumor, B16 melanoma, P 1534(J) leukemia, P388 leukemia or 755 adenocarcinoma were treated with a compound of this invention. In the table, column 1 gives the name of the compound; column 2, the tumor system employed; column 3, the dosage schedule and column 4, the percent inhibition of tumor growth or increased life span.

[2] = tested on: P388 leukemia; experiment: P388 leukemia transplanted in mice, tumor inhibition or prolongation of survival; format: in vivo
Procedure: as §1, §2

[3] = tested on: experimental malignancies; conditions: naturally-occurring Vinca alkaloids; prior patents; cited from earlier work
[4] = tested on: B16 melanoma; experiment: B16 melanoma transplanted in mice, tumor inhibition or prolongation of survival; format: in vivo
Procedure: as §1, §2

[5] = tested on: 755 adenocarcinoma; experiment: 755 adenocarcinoma transplanted in mice, tumor inhibition or prolongation of survival; format: in vivo
Procedure: as §1, §2

[6] = tested on: P 1534(J) leukemia; experiment: P 1534(J) leukemia transplanted in mice, tumor inhibition or prolongation of survival; format: in vivo; conditions: P1534(J)
Procedure: as §1, §2

[7] = tested on: C3 H mammary tumor; experiment: C3H mammary tumor transplanted in mice, tumor inhibition or prolongation of survival; format: in vivo
Procedure: as §1, §2

[8] = Titration pKa' in 66 percent DMF; format: physicochemical

CCC1(O)CC2CN(CCc3c([nH]c4ccccc34)C(C(=O)OC)(c3cc4c(cc3OC)N(C)C3C(O)(C(=O)NCCCCNC(=O)C5(O)C(O)C6(CC)C=CCN7CCC8(c9cc(C%10(C(=O)OC)CC%11CN(CCc%12c%10[nH]c%10ccccc%12%10)CC(O)(CC)C%11)c(OC)cc9N(C)C58)C76)C(O)C5(CC)C=CCN6CCC43C65)C2)C1 (stereo not shown) [1,4-bis(4-Desacetyl VLB C-3 carboxamido)butane disulfate]
Percent Inhibition or Prolongation of Survival Time ([1]; 0.4 mg./kg. × 9): 40%

CCC1(O)CC2CN(CCc3c([nH]c4ccccc34)C(C(=O)OC)(c3cc4c(cc3OC)N(C)C3C(O)(C(=O)NCCCCCCNC(=O)C5(O)C(O)C6(CC)C=CCN7CCC8(c9cc(C%10(C(=O)OC)CC%11CN(CCc%12c%10[nH]c%10ccccc%12%10)CC(O)(CC)C%11)c(OC)cc9N(C)C58)C76)C(O)C5(CC)C=CCN6CCC43C65)C2)C1 (stereo not shown) [1,6-bis(4-Desacetyl VLB C-3 carboxamido)hexane disulfate]
Percent Inhibition or Prolongation of Survival Time ([2]; P388, 0.9 mg./kg. × 3): 27%
Percent Inhibition or Prolongation of Survival Time ([2]; P388, 1.2 mg./kg. × 3): 74%

CCC1(O)CN2CCc3c([nH]c4ccccc34)C(C(=O)OC)(c3cc4c(cc3OC)N(C)C3C(O)(C(=O)OC)CC5(CC)C=CCN6CCC43C65)CC(C2)C1O (stereo not shown) [4-desacetoxy-3'-hydroxyvinblastine]
active in the treatment of experimental malignancies in animals [3]: active

CCC1(O)CC2CN(CCc3c([nH]c4ccccc34)C(C(=O)OC)(c3cc4c(cc3OC)N(C)C3C(O)(C(=O)OC)CC5(CC)C=CCN6CCC43C65)C2)C1 (stereo not shown) [4-desacetoxyvinblastine]
active in the treatment of experimental malignancies in animals [3]: active

CCC1(O)CC2CN(CCc3c([nH]c4ccccc34)C(C(=O)OC)(c3cc4c(cc3OC)N(C)C3C(O)(C(=O)NCCCSSCCCNC(=O)C5(O)C(O)C6(CC)C=CCN7CCC8(c9cc(C%10(C(=O)OC)CC%11CN(CCc%12c%10[nH]c%10ccccc%12%10)CC(O)(CC)C%11)c(OC)cc9N(C)C58)C76)C(O)C5(CC)C=CCN6CCC43C65)C2)C1 (stereo not shown) [bis [γ-(4-desacetyl VLB C-3 carboxamido)propyl]disulfide disulfate]
Percent Inhibition or Prolongation of Survival Time ([4]; B16, 0.6 mg./kg. × 3): 99%
number of indefinite survivors ([4]; B16, 0.6 mg./kg. × 3): 8
Percent Inhibition or Prolongation of Survival Time ([4]; B16, 0.9 mg./kg. × 3): 61%
number of indefinite survivors ([4]; B16, 0.9 mg./kg. × 3): 5
Percent Inhibition or Prolongation of Survival Time ([4]; B16, 1.2 mg./kg. × 3): 68%
number of indefinite survivors ([4]; B16, 1.2 mg./kg. × 3): 8

CCC1(O)CC2CN(CCc3c([nH]c4ccccc34)C(C(=O)OC)(c3cc4c(cc3OC)N(C)C3C(O)(C(=O)NCCOCCNC(=O)C5(O)C(O)C6(CC)C=CCN7CCC8(c9cc(C%10(C(=O)OC)CC%11CN(CCc%12c%10[nH]c%10ccccc%12%10)CC(O)(CC)C%11)c(OC)cc9N(C)C58)C76)C(O)C5(CC)C=CCN6CCC43C65)C2)C1 (stereo not drawn) [bis[β -(4-Desacetyl VLB C-3 carboxamido)ethyl]ether disulfate]
Percent Inhibition or Prolongation of Survival Time ([2]; P388, 0.6 mg./kg. × 3): 53%
Percent Inhibition or Prolongation of Survival Time ([2]; P388, 0.9 mg./kg. × 3): 77%
Percent Inhibition or Prolongation of Survival Time ([2]; P388, 1.2 mg./kg. × 3): 85%
Toxic (Percent Inhibition or Prolongation of Survival Time) ([2]; P388, 1.8 mg./kg. × 3): Toxic
Percent Inhibition or Prolongation of Survival Time ([1]; 0.4 mg./kg. × 9): 62%

CCC1(O)CC2CN(CCc3c([nH]c4ccccc34)C(C(=O)OC)(c3cc4c(cc3OC)N(C)C3C(O)(C(=O)NCC[Se][Se]CCNC(=O)C5(O)C(O)C6(CC)C=CCN7CCC8(c9cc(C%10(C(=O)OC)CC%11CN(CCc%12c%10[nH]c%10ccccc%12%10)CC(O)(CC)C%11)c(OC)cc9N(C)C58)C76)C(O)C5(CC)C=CCN6CCC43C65)C2)C1 (stereo not drawn) [bis[β-(4-Desacetyl VLB C-3 carboxamido)ethyl]diselenide disulfate]
Percent Inhibition or Prolongation of Survival Time ([5]; 755, 0.6 mg./kg. × 3): 26-32%
Percent Inhibition or Prolongation of Survival Time ([5]; 755, 0.9 mg./kg. × 3): 21-62%
Percent Inhibition or Prolongation of Survival Time ([5]; 755, 1.2 mg./kg. × 3): 31-42%
Percent Inhibition or Prolongation of Survival Time ([5]; 755, 1.8 mg./kg. × 3): 89%
Percent Inhibition or Prolongation of Survival Time ([6]; 1.2 mg./kg. × 3): 21%
Percent Inhibition or Prolongation of Survival Time ([6]; 1.8 mg./kg. × 3): 66%
Percent Inhibition or Prolongation of Survival Time ([7]; 1.5 mg./kg. × 3): 56%
Percent Inhibition or Prolongation of Survival Time ([7]; 2.0 mg./kg. × 3): 72%
Toxic (Percent Inhibition or Prolongation of Survival Time) ([7]; 2.5 mg./kg. × 3): Toxic
Percent Inhibition or Prolongation of Survival Time ([1]; 1.5 mg./kg. × 3): 29%
Percent Inhibition or Prolongation of Survival Time ([1]; 2.0 mg./kg. × 3): 57%
Percent Inhibition or Prolongation of Survival Time ([1]; 2.5 mg./kg. × 3): 72%

CCC1(O)CC2CN(CCc3c([nH]c4ccccc34)C(C(=O)OC)(c3cc4c(cc3OC)N(C)C3C(O)(C(=O)NCCSCCNC(=O)C5(O)C(O)C6(CC)C=CCN7CCC8(c9cc(C%10(C(=O)OC)CC%11CN(CCc%12c%10[nH]c%10ccccc%12%10)CC(O)(CC)C%11)c(OC)cc9N(C)C58)C76)C(O)C5(CC)C=CCN6CCC43C65)C2)C1 (stereo not drawn) [bis[β-(4-Desacetyl VLB C-3 carboxamido)ethyl]sulfide disulfate]
Percent Inhibition or Prolongation of Survival Time ([2]; P388, 0.6 mg./kg. × 3): 34%
Percent Inhibition or Prolongation of Survival Time ([2]; P388, 0.9 mg./kg. × 3): 49%
Percent Inhibition or Prolongation of Survival Time ([2]; P388, 1.2 mg./kg. × 3): 33%

CCC12CN3CCc4c([nH]c5ccccc45)C(C(=O)OC)(c4cc5c(cc4OC)N(C)C4C(O)(C(=O)NCCSSCCNC(=O)C6(O)C(O)C7(CC)C=CCN8CCC9(c%10cc(C%11(C(=O)OC)CC%12CN(CCc%13c%11[nH]c%11ccccc%13%11)CC%11(CC)OC%12%11)c(OC)cc%10N(C)C69)C87)C(O)C6(CC)C=CCN7CCC54C76)CC(C3)C1O2 (stereo not drawn) [bis[β-(4-Desacetylleurosine C-3 carboxamido)ethyl]disulfide disulfate]
Percent Inhibition or Prolongation of Survival Time ([2]; P388, 15 mg./kg. × 3): 46%
Percent Inhibition or Prolongation of Survival Time ([2]; P388, 30 mg./kg. × 3): 55%

CCC1CC2CN(CCc3c([nH]c4ccccc34)C(C(=O)OC)(c3cc4c(cc3OC)N(C)C3C(O)(C(=O)OC)C(OC(C)=O)C5(CC)C=CCN6CCC43C65)C2)C1 (stereo not shown) [deoxy VLB "A"]
active in the treatment of experimental malignancies in animals [3]: active

CCC1(O)CN2CCc3c([nH]c4ccccc34)C(C(=O)OC)(c3cc4c(cc3OC)N(C)C3C(O)(C(=O)OC)C(OC(C)=O)C5(CC)C=CCN6CCC43C65)CC(O)(C2)C1 (stereo not shown) [leurocolombine]
active in the treatment of experimental malignancies in animals [3]: active

CC[C@]1(O)C[C@H]2CN(CCc3c([nH]c4ccccc34)[C@@](C(=O)OC)(c3cc4c(cc3OC)N(C=O)[C@H]3[C@@](O)(C(=O)OC)[C@H](OC(C)=O)[C@]5(CC)C=CCN6CC[C@]43[C@@H]65)C2)C1 [leurocristine]
active in the treatment of experimental malignancies in animals [3]: active

CC[C@]12CN3CCc4c([nH]c5ccccc45)[C@@](C(=O)OC)(c4cc5c(cc4OC)N(C=O)[C@H]4[C@@](O)(C(=O)OC)[C@H](OC(C)=O)[C@]6(CC)C=CCN7CC[C@]54[C@@H]76)C[C@@H](C3)[C@H]1O2 [leuroformine]
active in the treatment of experimental malignancies in animals [3]: active

CCC1(O)CC2CN(CCc3c([nH]c4ccccc34)C(C(=O)OC)(c3cc4c(cc3OC)N(C)C3C(O)(C(=O)OC)C(OC(C)=O)C5(CC)C=CCN6CCC43C65)C2)C1 (stereo not shown) [leurosidine]
active in the treatment of experimental malignancies in animals [3]: active

CC[C@]12CN3CCc4c([nH]c5ccccc45)[C@@](C(=O)OC)(c4cc5c(cc4OC)N(C)[C@H]4[C@@](O)(C(=O)OC)[C@H](OC(C)=O)[C@]6(CC)C=CCN7CC[C@]54[C@@H]76)C[C@H](C3)[C@H]1O2 [leurosine]
active in the treatment of experimental malignancies in animals [3]: active

CCC1(O)CC2CN(CCc3c([nH]c4ccccc34)C(C(=O)OC)(c3cc4c(cc3OC)N(C)C3C(O)(C(=O)NCCN(CCNC(=O)C5(O)C(O)C6(CC)C=CCN7CCC8(c9cc(C%10(C(=O)OC)CC%11CN(CCc%12c%10[nH]c%10ccccc%12%10)CC(O)(CC)C%11)c(OC)cc9N(C)C58)C76)CCNC(=O)C5(O)C(O)C6(CC)C=CCN7CCC8(c9cc(C%10(C(=O)OC)CC%11CN(CCc%12c%10[nH]c%10ccccc%12%10)CC(O)(CC)C%11)c(OC)cc9N(C)C58)C76)C(O)C5(CC)C=CCN6CCC43C65)C2)C1 (stereo not drawn) [tris [β-(4-desacetyl VLB C-3 carboxamido)ethyl]amine]
pKa' [8]: 7.25
pKa' (first value) [8]: 5.2

CCC1(O)CN2CCc3c([nH]c4ccccc34)C(C(=O)OC)(c3cc4c(cc3OC)N(C)C3C(O)(C(=O)OC)C(OC(C)=O)C5(CC)C=CCN6CCC43C65)CC(C2)C1O (stereo not shown) [vincadioline]
active in the treatment of experimental malignancies in animals [3]: active

CC[C@]1(O)C[C@@H]2CN(CCc3c([nH]c4ccccc34)[C@@](C(=O)OC)(c3cc4c(cc3OC)N(C)[C@H]3[C@@](O)(C(=O)OC)[C@H](OC(C)=O)[C@]5(CC)C=CCN6CC[C@]43[C@@H]65)C2)C1 [vincaleukoblastine]
active in the treatment of experimental malignancies in animals [3]: active

Source: patent US4199504A (priority 1978, dated 1980)
